Our source for the IC50 values is PubChem BioAssay AID651837 (Sanford-Burnham Center for Chemical Genomics, 2012).

pIC50: −log10 of the molar value. Activity calls are given as the source filed them.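 How the source made its calls: active means compounds whose fitted half-inhibition dose is 9.7 micromolar or lower; inactive means the rest.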

This test deals with Sufu-KO-LIGHT mouse cells, Gli-luciferase reporter luminescence. The experiment in a line: Gli-SUFU pathway antagonists, Gli reporter, SAR follow-up, Sufu-KO-LIGHT mouse cells, luminescence, set 2 (AID 651837).
As usually defined, the IC50 is the concentration at which inhibition is half-maximal. As for `CC(C)(C)Nc1cc(NC(=O)c2ccccc2)ncn1`, the IC50 is > 9.7 µM (inactive).

`N#Cc1ccc(C(=O)Nc2cc(N3CCCCC3)ncn2)cc1`: the IC50 is > 9.7 µM (inactive).

In the case of `COc1cccc(C(=O)Nc2cc(N3CCCCC3)ncn2)c1`, the IC50 was > 9.7 µM (inactive).

As for `O=C(Nc1cc(N2CCNCC2)ncn1)c1ccccc1`, the IC50 was > 9.7 µM (inactive).

For the compound `O=C(Nc1cc(N2CCCCC2)ncn1)c1ccccc1C(F)(F)F`, the IC50 was > 9.7 µM (inactive).

On to `CC(C)(C)OC(=O)N1CCN(c2cc(NC(=O)c3ccccc3)ncn2)CC1`, for which the IC50 is > 9.7 µM (inactive).

By pIC50 is commonly meant the negative decadic logarithm of the IC50, by convention in mol/L. With `O=C(Nc1cc(N2CCCCCC2)ncn1)c1ccccc1`, the negative-log IC50 (pIC50) was 7.46.

Turning to `CC1CCCCN1c1cc(NC(=O)c2ccccc2)ncn1` (stereo not drawn), the IC50 was > 9.7 µM (inactive).

Consider `CN1CCN(c2cc(NC(=O)c3ccccc3)ncn2)CC1`, for which the IC50 is > 9.7 µM (inactive).

For the compound `CC(C)CNc1cc(NC(=O)c2ccccc2)ncn1`, the IC50 is > 9.7 µM (inactive).

Regarding `N#Cc1cccc(C(=O)Nc2cc(N3CCCCC3)ncn2)c1`, the IC50 is > 9.7 µM (inactive).

For `O=C(Nc1cc(N2CCOCC2)ncn1)c1ccccc1`, the IC50 was > 9.7 µM (inactive).

For `O=C(Nc1cc(NCC2CCCO2)ncn1)c1ccccc1` (stereo not drawn), the IC50 is > 9.7 µM (inactive).

Turning to `O=C(Nc1cc(N2CCSCC2)ncn1)c1ccccc1`, the IC50 was > 9.7 µM (inactive).

Take `Cc1ccc(C(=O)Nc2cc(N3CCCCC3)ncn2)cc1`: the IC50 was > 9.7 µM (inactive).

As to `O=C(Nc1cc(N2CCCCC2)ncn1)c1ccc(Cl)cc1`, the IC50 was > 9.7 µM (inactive).

With `CCOc1ccc(-c2nc(CSCC(=O)NC3CC3)c(C)o2)cc1`, the pIC50 was 7.57.

Turning to `O=C(Nc1cc(N2CCCCC2)ncn1)c1ccco1`, the IC50 is > 9.7 µM (inactive).

As to `O=C(Nc1cc(N2CCCCC2)ncn1)c1ccccc1Cl`, the IC50 was > 9.7 µM (inactive).

`CCCCNc1cc(NC(=O)c2ccccc2)ncn1`: the IC50 was > 9.7 µM (inactive).

`CC(C)Nc1cc(NC(=O)c2ccccc2)ncn1`: the IC50 was > 9.7 µM (inactive).

As to `CC1CCN(c2cc(NC(=O)c3ccccc3)ncn2)CC1`, the negative logarithm of the IC50 (pIC50) is 7.62.

Turning to `CCOc1ccc(S(=O)(=O)NCc2ccncc2)cc1NC(=O)c1ccccc1`, the negative logarithm of the IC50 (pIC50) was 5.47.

Turning to `O=C(Nc1cc(N2CCCCC2)ncn1)c1ccccc1`, the pIC50 was 7.64.

As for `CCCCN(C)c1cc(NC(=O)c2ccccc2)ncn1`, the IC50 was > 9.7 µM (inactive).

Regarding `COc1ccccc1C(=O)Nc1cc(N2CCCCC2)ncn1`, the IC50 was > 9.7 µM (inactive).

On to `O=C(Nc1cc(N2CCCCC2)ncn1)c1ccc(C(F)(F)F)cc1`, for which the IC50 was > 9.7 µM (inactive).

In the case of `CCC(C)Nc1cc(NC(=O)c2ccccc2)ncn1` (stereo not drawn), the IC50 was > 9.7 µM (inactive).
